Legend:
[1] = test system: hepatic lipid accumulation; conditions: 25 mg icariin/kg diet; corresponding to 4 mg/kg body weight/day; previous published studies; cited from earlier work
[2] = test system: liver triglycerides; conditions: Example 3; HFD mice, six weeks; therapeutic metformin alone 1.5 g/kg diet
Text: (§1) Chronic high fat diet was used in C57Bl/6 mice as an experimental model of hepatic steatosis. Male C57/BL6 mice were either maintained on standard low-fat diet (control; LFD; 10% energy from fat) or placed on a high fat (HFD; 60% energy from fat, Research Diets #D12492, Research Diets, Inc, New Brunswick, N.J.) at six weeks of age to induce obesity and fatty infiltration of the liver. […] Animals were then randomized to treatments for an additional six weeks, with 10 animals per group, as specified in the following examples.
(§2) In this study, the effects of metformin alone (therapeutic dose) vs. combination therapy with sub-therapeutic amounts of metformin and leucine on liver weight and hepatic lipid accumulation were assessed. Following induction of hepatic steatosis as described in Example 1, animals were treated for six weeks according to the following treatment groups as depicted in Table 22:

[3] = test system: hepatic steatosis; assay: Prophylactic treatment concurrent with high fat diet: liver mass and hepatic lipid accumulation; assay type: in vivo, C57Bl/6 mice; conditions: treatment and HFD started same day, six weeks, metformin alone 1.5 g/kg diet, with or without resveratrol 12.5 mg/kg diet
Method: In this study, the prophylactic effects of metformin alone, and various combinations of metformin, leucine, and resveratrol on liver mass and hepatic steatosis are assessed. C57Bl/6 mice are assigned to the following experimental groups as depicted in Table 25: Drug treatments and high fat diet feeding (as described in Example 1) are initiated on the same day and are carried out for six weeks. The effects of the treatments and diet on liver mass and hepatic lipid accumulation are assessed as described in the preceding examples. […] In this study, the prophylactic effects of metformin alone, and various combinations of metformin, HMB, and resveratrol on liver mass and hepatic steatosis are assessed. C57Bl/6 mice are assigned to the following experimental groups as depicted in Table 26: Drug treatments and high fat diet feeding (as described in Example 1) are initiated on the same day and are carried out for six weeks. The effects of the treatments and diet on liver mass and hepatic lipid accumulation are assessed as described in the preceding examples. […] In this study, the prophylactic effects of sub-therapeutic leucine alone, and co-administration of leucine and the PDE5-specific inhibitor icariin on liver mass and hepatic steatosis are assessed. […] The effects of the treatments and diet on liver mass and hepatic lipid accumulation are assessed as described in the preceding examples.

[4] = test system: hepatic steatosis; assay: Liver weight after six weeks treatment in chronic high fat diet mice; assay type: in vivo, C57Bl/6 mice; conditions: therapeutic metformin alone 1.5 g/kg diet
Text: as §1
(§3) In this study, the effects of metformin alone (therapeutic dose), subtherapeutic metformin alone, subtherapeutic leucine, and various combinations of leucine, metformin, and resveratrol on liver weight and hepatic lipid accumulation were assessed. The 1.5 g/kg diet of metformin corresponds to a therapeutically effective dose of metformin in humans. […] Likewise, the 24 g/kg dose of leucine represents a sub-therapeutic dose that was predicted to exert no significant independent effects on liver mass or hepatic steatosis. Following induction of hepatic steatosis as described in Example 1, animals were treated according to the following treatment groups as depicted in Table 21:
as §2

[5] = test system: hepatic steatosis; assay: Histological analysis of hepatic lipid accumulation in chronic high fat diet mice; assay type: in vivo, C57Bl/6 mice; conditions: HFD mice, six weeks
Text: as §1, §3, §2

| Compound | effect on liver mass or hepatic lipid accumulation [1] | effect on liver triglycerides [2] | HFD-induced increase in liver mass and hepatic lipid accumulation (prophylactic) ([3]; Example 6, leucine 24 g/kg diet + metformin 0.15-0.50 g/kg diet) | HFD-induced increase in liver mass and hepatic lipid accumulation (prophylactic) ([3]; Example 7, HMB (CaHMB, 2 g/kg diet) + metformin 0.15-0.50 g/kg diet) | effect on liver weight ([4]; Example 2, HFD mice, leucine 24 g/kg diet, resveratrol 12.5 mg/kg diet) | effect on liver weight ([4]; Example 3, HFD mice, p<0.02 vs. HFD, n.s. compared to LFD) | effect on liver weight ([4]; Example 4, HFD mice, p<0.03) | hepatic steatosis (histological analysis) ([5]; Example 2, metformin alone 1.5 g/kg diet, leucine 24 g/kg diet, resveratrol 12.5 mg/kg diet, combination with sub-therapeutic metformin) | hepatic steatosis (histological analysis) ([5]; Example 3, single agents at 'therapeutic dosages' (metformin 1.5 g/kg diet)) | hepatic steatosis (histological analysis) ([5]; Example 4, therapeutic metformin alone 1.5 g/kg diet) |
| --- | --- | --- | --- | --- | --- | --- | --- | --- | --- | --- |
| COc1ccc(-c2oc3c(CC=C(C)C)c(O[C@@H]4O[C@H](CO)[C@@H](O)[C@H](O)[C@H]4O)cc(O)c3c(=O)c2O[C@@H]2O[C@@H](C)[C@H](O)[C@@H](O)[C@H]2O)cc1 [icariin] | no effect | – | – | – | – | – | – | – | – | – |
| metformin | – | partially reversed the effect of high fat diet on liver triglycerides | attenuates the HFD-induced increase in liver mass and hepatic lipid accumulation | attenuates the HFD-induced increase in liver mass and hepatic lipid accumulation | partially reverse the effect of high fat diet on liver weight | reversed the effect of high fat diet on liver weight back to control levels | reversed the effect of high fat diet on liver weight back to control levels | partial reversal of the effects of HFD on hepatic steatosis | partially reversed hepatic steatosis | partially reversed hepatic steatosis |
